Measured values reported in US20100069421A1, “COMPOSITIONS AND METHODS FOR THE TREATMENT OF RADIATION PROCTOSIGMOITIS” (priority 2006, published 2010).

Test system: patient experiencing radiation induced enteritis
Test: Administration of rifaximin to a patient experiencing radiation induced enteritis
Type: in vivo, human
Conditions: no data shown
From the text: The recognition of bacteria as primarily causative of the symptomatology seen in cancer patients represents a paradigm shift in that bacterial colonization, overgrowth, and/or invasion are a potentially curable or controllable source of a patient's discomfort. Furthermore, this represents a paradigm shift in that prior measures commonly used in the amelioration of such problems were supportive in nature, addressing the symptoms of these conditions and not the root cause itself. This permits greater targeting of the symptoms' cause and results in improved efficacy of symptom amelioration, while at the same time causing fewer adverse effects, as would be commonly seen with supportive measures such as traditional anti-diarrheals. […] Furthermore, it enables the physician to treat the cause of the symptoms in such a way that suboptimally effective supportive measures can not. This is seen in terms of greater targeting of therapy, fewer drug interactions, and improved tolerance to therapy. Particular benefit is seen with this therapy because it may prevent or ameliorate symptoms that would otherwise necessitate a break in treatment to allow the patient to recover from their symptoms. […]

Compound: CO[C@H]1/C=C/O[C@@]2(C)Oc3c(C)c(O)c4c(O)c(c5c(nc6cc(C)ccn65)c4c3C2=O)NC(=O)/C(C)=C\C=C\[C@H](C)[C@H](O)[C@@H](C)[C@@H](O)[C@@H](C)[C@H](OC(C)=O)[C@@H]1C [Rifaximin]
- symptoms of radiation induced enteritis: reduces symptoms of the condition
